Key:
[1] = tested on: barnyardgrass; test: Test A preemergence; assay type: in vivo, Echinochloa crus-galli; conditions: for Barnyardgrass plant response rating (0 to 100 scale, 0 is no effect, 100 is complete control): 125 g ai/ha; for Barnyardgrass plant response rating: 500 g ai/ha, 0 to 100 scale where 0 is no effect and 100 is complete control
Method in brief: (§1)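 Visual 0–100 rating (100 = complete control) taken about 10 d post-treatment relative to untreated checks. Preemergence: directed soil spray on sown loam/sand pots. Postemergence: seedlings 2–10 cm, 1–2 leaf. Non-phytotoxic solvent formulation with surfactant.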

[2] = tested on: large (Lg) crabgrass; test: Test A preemergence; assay type: in vivo, Digitaria sanguinalis; conditions: for Crabgrass, Large plant response rating (0 to 100 scale): 125 g ai/ha; for Crabgrass, Large plant response rating: 500 g ai/ha, 0 to 100 scale where 0 is no effect and 100 is complete control
Method in brief: as §1

[3] = tested on: giant foxtail; test: Test A preemergence; assay type: in vivo, Setaria faberii; conditions: for Foxtail, Giant plant response rating (0 to 100 scale): 125 g ai/ha; for Foxtail, Giant plant response rating: 500 g ai/ha, 0 to 100 scale where 0 is no effect and 100 is complete control
Method in brief: as §1

[4] = tested on: morningglory; test: Test A preemergence; assay type: in vivo, Ipomoea spp.; conditions: for Morningglory plant response rating (0 to 100 scale): 125 g ai/ha; for Morningglory plant response rating: 500 g ai/ha, 0 to 100 scale where 0 is no effect and 100 is complete control
Method in brief: as §1

[5] = tested on: pigweed; test: Test A preemergence; assay type: in vivo, Amaranthus retroflexus; conditions: for Pigweed plant response rating (0 to 100 scale): 125 g ai/ha; for Pigweed plant response rating: 500 g ai/ha, 0 to 100 scale where 0 is no effect and 100 is complete control
Method in brief: as §1

[6] = tested on: velvetleaf; test: Test A preemergence; assay type: in vivo, Abutilon theophrasti; conditions: for Velvetleaf plant response rating (0 to 100 scale): 125 g ai/ha; for Velvetleaf plant response rating: 500 g ai/ha, 0 to 100 scale where 0 is no effect and 100 is complete control
Method in brief: as §1

[7] = tested on: wheat; test: Test A preemergence; assay type: in vivo, Triticum aestivum; conditions: for Wheat plant response rating (0 to 100 scale): 125 g ai/ha; for Wheat plant response rating: 500 g ai/ha, 0 to 100 scale where 0 is no effect and 100 is complete control
Method in brief: as §1

[8] = tested on: corn; test: Test A preemergence; assay type: in vivo, Zea mays; conditions: for Corn plant response rating (0 to 100 scale): 125 g ai/ha; for Corn plant response rating: 500 g ai/ha, 0 to 100 scale where 0 is no effect and 100 is complete control
Method in brief: as §1

[9] = tested on: barnyardgrass; test: Test A postemergence; assay type: in vivo, Echinochloa crus-galli; conditions: 0 to 100 scale where 0 is no effect and 100 is complete control; for Barnyardgrass plant response rating: 125 g ai/ha; for Plant response rating, Barnyardgrass: 500 g ai/ha
Method in brief: as §1

[10] = tested on: large (Lg) crabgrass; test: Test A postemergence; assay type: in vivo, Digitaria sanguinalis; conditions: 0 to 100 scale where 0 is no effect and 100 is complete control; for Crabgrass, Large plant response rating: 125 g ai/ha; for Plant response rating, Crabgrass, Large: 500 g ai/ha
Method in brief: as §1

[11] = tested on: giant foxtail; test: Test A postemergence; assay type: in vivo, Setaria faberii; conditions: 0 to 100 scale where 0 is no effect and 100 is complete control; for Foxtail, Giant plant response rating: 125 g ai/ha; for Plant response rating, Foxtail, Giant: 500 g ai/ha
Method in brief: as §1

[12] = tested on: morningglory; test: Test A postemergence; assay type: in vivo, Ipomoea spp.; conditions: 0 to 100 scale where 0 is no effect and 100 is complete control; for Morningglory plant response rating: 125 g ai/ha; for Plant response rating, Morningglory: 500 g ai/ha
Method in brief: as §1

[13] = tested on: pigweed; test: Test A postemergence; assay type: in vivo, Amaranthus retroflexus; conditions: 0 to 100 scale where 0 is no effect and 100 is complete control; for Pigweed plant response rating: 125 g ai/ha; for Plant response rating, Pigweed: 500 g ai/ha
Method in brief: as §1

[14] = tested on: velvetleaf; test: Test A postemergence; assay type: in vivo, Abutilon theophrasti; conditions: 0 to 100 scale where 0 is no effect and 100 is complete control; for Velvetleaf plant response rating: 125 g ai/ha; for Plant response rating, Velvetleaf: 500 g ai/ha
Method in brief: as §1

[15] = tested on: wheat; test: Test A postemergence; assay type: in vivo, Triticum aestivum; conditions: 0 to 100 scale where 0 is no effect and 100 is complete control; for Wheat plant response rating: 125 g ai/ha; for Plant response rating, Wheat: 500 g ai/ha
Method in brief: as §1

[16] = tested on: corn; test: Test A postemergence; assay type: in vivo, Zea mays; conditions: 0 to 100 scale where 0 is no effect and 100 is complete control; for Corn plant response rating: 125 g ai/ha; for Plant response rating, Corn: 500 g ai/ha
Method in brief: as §1

[17] = tested on: rice; test: Test B flooded paddy test; assay type: in vivo, Oryza sativa; conditions: Flood, 250 g ai/ha; 0 to 100 scale where 0 is no effect and 100 is complete control
Method in brief: (§2)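 Plants at 2-leaf stage; pots flooded to 3 cm above soil and compound applied directly into paddy water, depth held throughout. After 13 to 15 days in greenhouse, visual rating versus controls on 0 (no effect) to 100 (complete control) scale.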

[18] = tested on: sedge, umbrella; test: Test B flooded paddy test; assay type: in vivo, Cyperus difformis; conditions: Flood, 250 g ai/ha; 0 to 100 scale where 0 is no effect and 100 is complete control
Method in brief: as §2

[19] = tested on: Heteranthera limosa; test: Test B flooded paddy test; assay type: in vivo; conditions: Flood, 250 g ai/ha; 0 to 100 scale where 0 is no effect and 100 is complete control
Method in brief: as §2

[20] = tested on: barnyardgrass; test: Test B flooded paddy test; assay type: in vivo, Echinochloa crus-galli; conditions: Flood, 250 g ai/ha; 0 to 100 scale where 0 is no effect and 100 is complete control
Method in brief: as §2

[21] = tested on: rice; test: Test C flooded paddy test; assay type: in vivo, Oryza sativa; conditions: Flood, scale 0 to 100 (0 no effect, 100 complete control), 13 to 15 days
Method in brief: (§3)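 In-water treatment: compound dosed into 3 cm flood over soil, water level unchanged throughout. Controls run alongside; visual assessment at day 13–15.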

[22] = tested on: sedge, umbrella; test: Test C flooded paddy test; assay type: in vivo, Cyperus difformis; conditions: Flood, scale 0 to 100 (0 no effect, 100 complete control), 13 to 15 days
Method in brief: as §3

[23] = tested on: ducksalad; test: Test C flooded paddy test; assay type: in vivo, Heteranthera limosa; conditions: Flood, scale 0 to 100 (0 no effect, 100 complete control), 13 to 15 days
Method in brief: as §3

[24] = tested on: barnyardgrass; test: Test C flooded paddy test; assay type: in vivo, Echinochloa crus-galli; conditions: Flood, scale 0 to 100 (0 no effect, 100 complete control), 13 to 15 days
Method in brief: as §3

CON=Cc1cccc(Oc2ncc(Cl)cn2)c1-n1cc(Br)cn1 [Compound 203]
Barnyardgrass plant response rating (0 to 100 scale, 0 is no effect, 100 is complete control) [1]: 10
Barnyardgrass plant response rating [1]: 40
Crabgrass, Large plant response rating (0 to 100 scale) [2]: 100
Crabgrass, Large plant response rating [2]: 100
Foxtail, Giant plant response rating (0 to 100 scale) [3]: 90
Foxtail, Giant plant response rating [3]: 100
Morningglory plant response rating (0 to 100 scale) [4]: 0
Morningglory plant response rating [4]: 10
Pigweed plant response rating (0 to 100 scale) [5]: 90
Pigweed plant response rating [5]: 100
Velvetleaf plant response rating (0 to 100 scale) [6]: 30
Velvetleaf plant response rating [6]: 40
Wheat plant response rating (0 to 100 scale) [7]: 0
Wheat plant response rating [7]: 0
Corn plant response rating (0 to 100 scale) [8]: 0
Corn plant response rating [8]: 0
Barnyardgrass plant response rating [9]: 40
Plant response rating, Barnyardgrass [9]: 70
Crabgrass, Large plant response rating [10]: 60
Plant response rating, Crabgrass, Large [10]: 80
Foxtail, Giant plant response rating [11]: 70
Plant response rating, Foxtail, Giant [11]: 80
Morningglory plant response rating [12]: 20
Plant response rating, Morningglory [12]: 70
Pigweed plant response rating [13]: 70
Plant response rating, Pigweed [13]: 90
Velvetleaf plant response rating [14]: 80
Plant response rating, Velvetleaf [14]: 90
Wheat plant response rating [15]: 0
Plant response rating, Wheat [15]: 20
Corn plant response rating [16]: 30
Plant response rating, Corn [16]: 50
Plant response rating, Rice [17]: 10
Plant response rating, Sedge, Umbrella [18]: 90
Plant response rating, Ducksalad [19]: 90
Plant response rating, Barnyardgrass [20]: 0
Plant response rating, Rice ([21]; 31 g ai/ha): 0
Plant response rating, Rice ([21]; 62 g ai/ha): 20
Plant response rating, Rice ([21]; 125 g ai/ha): 20
Plant response rating, Sedge, Umbrella ([22]; 31 g ai/ha): 50
Plant response rating, Sedge, Umbrella ([22]; 62 g ai/ha): 75
Plant response rating, Sedge, Umbrella ([22]; 125 g ai/ha): 85
Plant response rating, Ducksalad ([23]; 31 g ai/ha): 0
Plant response rating, Ducksalad ([23]; 62 g ai/ha): 50
Plant response rating, Ducksalad ([23]; 125 g ai/ha): 70
Plant response rating, Barnyardgrass ([24]; 31 g ai/ha): 40
Plant response rating, Barnyardgrass ([24]; 62 g ai/ha): 50
Plant response rating, Barnyardgrass ([24]; 125 g ai/ha): 50

FC(F)c1cccc(Oc2ncc(Br)cn2)c1-n1cc(Br)cn1 [Compound 231]
Barnyardgrass plant response rating (0 to 100 scale, 0 is no effect, 100 is complete control) [1]: 20
Barnyardgrass plant response rating [1]: 100
Crabgrass, Large plant response rating (0 to 100 scale) [2]: 90
Crabgrass, Large plant response rating [2]: 100
Foxtail, Giant plant response rating (0 to 100 scale) [3]: 90
Foxtail, Giant plant response rating [3]: 100
Morningglory plant response rating (0 to 100 scale) [4]: 0
Morningglory plant response rating [4]: 30
Pigweed plant response rating (0 to 100 scale) [5]: 90
Pigweed plant response rating [5]: 100
Velvetleaf plant response rating (0 to 100 scale) [6]: 0
Velvetleaf plant response rating [6]: 100
Wheat plant response rating (0 to 100 scale) [7]: 0
Wheat plant response rating [7]: 20
Corn plant response rating (0 to 100 scale) [8]: 0
Corn plant response rating [8]: 20
Barnyardgrass plant response rating [9]: 40
Plant response rating, Barnyardgrass [9]: 90
Crabgrass, Large plant response rating [10]: 70
Plant response rating, Crabgrass, Large [10]: 90
Foxtail, Giant plant response rating [11]: 70
Plant response rating, Foxtail, Giant [11]: 90
Morningglory plant response rating [12]: 30
Plant response rating, Morningglory [12]: 90
Pigweed plant response rating [13]: 100
Plant response rating, Pigweed [13]: 100
Velvetleaf plant response rating [14]: 100
Plant response rating, Velvetleaf [14]: 100
Wheat plant response rating [15]: 20
Plant response rating, Wheat [15]: 50
Corn plant response rating [16]: 20
Plant response rating, Corn [16]: 90
Plant response rating, Rice [17]: 30
Plant response rating, Sedge, Umbrella [18]: 80
Plant response rating, Ducksalad [19]: 80
Plant response rating, Barnyardgrass [20]: 20
Plant response rating, Rice ([21]; 31 g ai/ha): 0
Plant response rating, Rice ([21]; 62 g ai/ha): 0
Plant response rating, Rice ([21]; 125 g ai/ha): 0
Plant response rating, Rice ([21]; 250 g ai/ha): 0
Plant response rating, Sedge, Umbrella ([22]; 31 g ai/ha): 0
Plant response rating, Sedge, Umbrella ([22]; 62 g ai/ha): 50
Plant response rating, Sedge, Umbrella ([22]; 125 g ai/ha): 70
Plant response rating, Sedge, Umbrella ([22]; 250 g ai/ha): 80
Plant response rating, Ducksalad ([23]; 31 g ai/ha): 0
Plant response rating, Ducksalad ([23]; 62 g ai/ha): 30
Plant response rating, Ducksalad ([23]; 125 g ai/ha): 70
Plant response rating, Ducksalad ([23]; 250 g ai/ha): 75
Plant response rating, Barnyardgrass ([24]; 31 g ai/ha): 0
Plant response rating, Barnyardgrass ([24]; 62 g ai/ha): 0
Plant response rating, Barnyardgrass ([24]; 125 g ai/ha): 0
Plant response rating, Barnyardgrass ([24]; 250 g ai/ha): 0

Source: patent US9695155B2, “Herbicidal substituted pyrimidinyloxy benzene compounds” (E. I. DU PONT DE NEMOURS AND COMPANY, priority 2013, dated 2017)
